The source of these data is patent publication US20180228897A1, “Compositions for Vapor Phase Delivery of Active Compounds, Methods of Making and Using Same, and Kits Comprising Same” (Atmovita, LLC, priority 2015, published 2018).

Like-named read-outs stand apart in the source and are kept apart here. Peptide text beside a SMILES is read from it. * marks the point of attachment. PhAc = O=C(Cc1ccccc1)*

Common to all, as to type: physicochemical
A short description of data set [1]: Preparation of compositions (Example 3): appearance and stability of the solution.
Data set [2] in a line: Trans resveratrol solubility in stock with solvents and co-solutes (incremental addition, heat gun). The procedure:
The initial approach was to test non polar solvents and their effectiveness with ethanol. This included pure stock as a control, carvone, and combinations of those solvents with ethanol. The following solvents were prepared: Control—3.5 ml of pure stock, 1-1.75 ml of stock+1.75 ml of carvone+0.2 ml of 0.01 mol NaOH, 2-3.5 ml of pure carvone, 3-3 ml of stock+0.5 ml of ethanol, 4-3 ml of carvone+0.5 ml of ethanol.
Solution 1 became biphasic and cloudy. The control and solution 4 have approximately the same solubility of TR. […] Solvent was added until the TR was dissolved which occurred at 60 mg/ml of stock. This original solution was split into 5 test tubes of 1 ml each with about 0.06 g of TR.
The following solutions were made: 1—adding […] of carvone (equimolar with TR, 0.000263 mol of each) 2—adding 0.175 ml of ethanol 3-0.235 ml of carvone and 0.1 ml of ethanol. Solution 1 became cloudy because the carvone is immiscible with the stock. Several attempts to fix this were made using of ethanol and B3 amide as hydrotropes but it had no effect.
Next co-solutes were used along with the TR in stock solution. 0.000263 mol of the following were dissolved along with TR in 3 ml stock: 1-niacin, 2-caffeine, 3-gallic acid, 4-salicylic acid, 5-thiamine, 6-niacinamide, and 7-pantothenic acid. Two additional samples were prepared of 0.01 g biotin (8) and 0.04 g of -pyridoxine HCl (9). Each solution consisted of the stated amount of co-solute and 3 ml of stock. The following amounts of TR (which was added incrementally (30-40 mg) and heated for 3-4 minutes by heat gun) created the following:
To conduct further testing 0.5 ml of ethanol was added to the solutions with niacin, biotin, thiamine, and salicylic acid. The successful B3 amide solution was split into two solutions of (1.625 and 1.375 ml) with 0.25 ml of ethanol being added to the 1.375 ml solution. The results were as follows:
There was also testing with multiple solutes in 3 ml of stock:
Currently piperazine hexahydrate is being tested as it is another hydrotrope. […] It may work better with other co-solutes or ethanol.

Data set [3] in a line: Increase in solubility of active compounds in the present compositions. The text has this:
It is advantageous to take measures to increase the solubility of an active compound or active compounds within a composition that includes components that serve as excipients such that true solubilization of the compound(s) occurs and the activity of the active compounds are retained upon transition to the vapor phase. The present disclosure is based on the result that the solubility of active compounds can be increased by surprising and unexpected amounts.

The nature of data set [4]: Folate solubility in glycerin/2,3 butane diol stock compositions with co-solutes (incremental addition, heat gun, stirring). Conditions: organic solvent or mixture, thermodynamic from solid; stock/water/ethanol solvent. The procedure:
Folate. Folate and biotin are the two most difficult to dissolve B vitamins. Folate solubility enhancement was provided by addition of beta-cyclodextrin.
The solubility enhancement from mannitol/biotin alone was tested next. […] This is major improvement over most polar solvents (0.0016 g/L of water at 25° C.).
First the mannitol/biotin powder was mixed with 0.004 g of folate. This was added to the test tube followed by the liquid. It was stirred vigorously. Then it was heated with a heat gun until clear and no folate was suspended. […] All the liquid was moved to another test tube and the precipitate remained. Then folate was incrementally added (about 1 mg) and the solution was stirred, followed by heating** until it became clear. It would take at least 3 minutes of heating for it to become clear but as more folate was added, at least 4 minutes of heating were needed. This is how the original solution was formed. Over the course of several days there was no further precipitate or increase in viscosity. ** all heating was done with the yellow heat gun on the lowest setting (240° F.)
While heating and stirring the lid popped off and 0.75 ml of solution spilled out. Even accounting for folate lost in the spill, currently at least 8 mg of folate have been dissolved in 2.75 ml and the solution is completely clear. Heating the solution caused the lid to pop so it must be removed after about 1 minute and 30 seconds of heating prior to any further heating. It is also crucial for the solution to have been flipped upside down, preferably while warm. The solution must not be heated while flipped as this may cause a spill.
The original solution still has less much viscosity but also a slightly lower concentration of folate. It appears that somewhere beyond 8 mg folate/[…] of solution it becomes supersaturated, resulting in a thick gel upon settling and cooling. […] As long as supersaturation followed by settling is avoided, the solution will remain liquid. Another option is to study the effect of precipitation inhibitors or the sonicator to further boost solubility without increasing viscosity.
Testing was also done with only stock, stock+water and stock+ethanol but having both water and ethanol is crucial to the process. […] Despite having separated the liquid from the precipitate which was nearly all biotin/mannitol, the powder still played a role in improving folate solubility. […] The following composition (3 ml stock+0.25 ml water+0.25 ml ethanol+0.009 g of biotin) dissolved 11.2 mg of folate but became extremely viscous.
According to research on drug solubility there is a class of molecules known as hydrotropes (also known as chaotropes, […]). They reduce hydrophobic forces between non-polar solutes in polar solvents. One such molecule is niacinamide (vitamin B3 amide). These hydrotropes are planar and are either very polar or have nonpolar and polar sides like surfactants but shorter. This experiment was repeated with niacinamide as a cosolute and with a combination of B3 amide and Biotin. The biotin and B3 amide were added along with 4 mg of folate (and crushed together) wet into dry to the solution. The remaining folate was added incrementally along with heating and stirring. […] (2.5 ml stock+0.5 ml water+0.5 ml ethanol+0.0221 g of B3 amide) dissolved approximately 11 mg of folate and a small amount of precipitate. (2.5 ml stock+0.5 ml water+0.5 ml ethanol+0.0221 g of B3 amide+0.090 g pure biotin) dissolved approximately 11.4 mg of folate without precipitate. Unfortunately both solutions were extremely viscous after a few days.
Eventually the B3 amide and biotin cosolute solution was prepared using “reverse stock” instead of regular with the goal of lowering viscosity. The reverse stock is a solution of 3:7 mol glycerin and 2,3 butane diol. Initially this made folate precipitate so additional glycerin was added to achieve a 1:1 mol ratio of glycerin to 2,3 butane diol.

Where [5] appears, read: 0.693 g L-arginine and 0.693 g l-theanine in 0.75 ml stock, 2.5 ml water, 0.25 ml flavored glycerin.

`N=C(N)NCCC[C@H](N)C(=O)O` [L-arginine]: the appearance of composition result in data set [1] (setting [5]) is “clear and flavored solution”.

On to `CC(C)(CO)[C@@H](O)C(=O)NCCC(=O)O` [Pantothenic Acid], for which the appearance of composition result in data set [1] (0.2 g vitamin B5 in 1.5 ml stock, 2.0 ml fruit flavored vodka, 0.1 ml flavored glycerin) is “clear and flavored solution”.

A word on the solubility: it is how much of the substance goes into solution per volume. With `Oc1ccc(/C=C/c2cc(O)cc(O)c2)cc1` [TR, Trans-resveratrol], the “amount of TR added” value amounted to 0.0731 g in data set [2] (0.000263 mol piperazine.6H2O in 1 ml stock); 0.0131 g in data set [2] (3 ml stock + 0.000263 mol caffeine (2)); 0.1784 g in data set [2] (3 ml stock + 0.000263 mol gallic acid (3)); 0.1776 g in data set [2] (3 ml stock + 0.000263 mol niacin (1)); 0.1738 g in data set [2] (3 ml stock + 0.000263 mol niacinamide (6)); 0.0131 g in data set [2] (3 ml stock + 0.000263 mol pantothenic acid (7)). The “amount of TR added” value in data set [2] (3 ml stock + 0.000263 mol salicylic acid (4)) was 0.1784 g; in data set [2] (3 ml stock + 0.000263 mol thiamine (5)) it was 0.1808 g; in data set [2] (3 ml stock + 0.01 g biotin (8)), 0.1733 g; in data set [2] (3 ml stock + 0.04 g pyridoxine HCl (9)), 0.1859 g. The “appearance of solution after a few days” value in data set [2] (0.000263 mol piperazine.6H2O in 1 ml stock, 0.0731 g TR) was “the solution became dark and there was a small amount of precipitate”. Also, the “amount of TR dissolved” value worked out at 0.2606 g in data set [2] (0.0100 g B7+3.5 ml stock+0.5 ml ethanol); 0.2316 g in data set [2] (0.0324 g B3+3.5 ml stock+0.5 ml ethanol); 0.2333 g in data set [2] (0.0698 g B1+3.5 ml stock+0.5 ml ethanol); 0.025 g in data set [2] (3 ml stock, 0.03175 g B3 amide+0.069 g B1+0.006352 g B7, footnote: immediately precipitate); 0.1844 g in data set [2] (3 ml stock, 0.0482 g B3 amide+0.03 g B1); 0.025 g in data set [2] (3 ml stock, 0.0482 g B3 amide+0.09 g B7, footnote: immediately precipitate). In addition, the “TR dissolved per ml” value in data set [2] (0.048175 B3 amide+1.375+0.25 ml ethanol) and in data set [2] (0.048175 B3 amide+1.625 ml) was 0.125 g TR/ml each time. Besides, the appearance of solution result in data set [2] (3 ml stock + biotin (8), 0.1733 g TR) was “tiny amount of suspension”; in data set [2] (3 ml stock + caffeine (2), 0.0131 g TR), “immediately precipitated”; in data set [2] (3 ml stock + gallic acid (3), 0.1784 g TR), “clearly visible suspension and precipitate on bottom”; in data set [2] (3 ml stock + niacin (1), 0.1776 g TR), “slight visible suspension of particles”; in data set [2] (3 ml stock + niacinamide (6), 0.1738 g TR), “totally clear solution with low viscosity”; in data set [2] (3 ml stock + pantothenic acid (7), 0.0131 g TR) it was “cloudy solution without precipitate”. The appearance of solution entry is “clearly visible suspension with precipitate” in data set [2] (3 ml stock + pyridoxine HCl (9), 0.1859 g TR); “small amount of suspension and precipitate are visible in solution” in data set [2] (3 ml stock + salicylic acid (4), 0.1784 g TR); “small amount of suspension and precipitate are visible in solution” in data set [2] (3 ml stock + thiamine (5), 0.1808 g TR). Moreover, the solubility in data set [2] (glycerin/2,3 butane diol stock (70:30 mol), organic solvent or mixture, thermodynamic from solid, pure stock (70:30 mole glycerin:2,3 butane diol), read-out: solubility in stock) was 60 mg/mL; in data set [2] (organic solvent or mixture, thermodynamic from solid, flavored glycerin (with 2,3 butane diol added) instead of regular stock, read-out: solubility) it was 45 mg/mL; in data set [2] (solution 2: 1 ml TR stock solution + 0.175 ml ethanol), 60 mg/mL. For the same compound, the “appearance and stability of composition” value in data set [1] (0.2 g trans resveratrol, 0.12 g nicotinamide, 0.08 g ethyl vanillin, 0.06 g cinnamic acid in 3.5 ml stock) is “clear and flavored solution that became unstable after two weeks and precipitated”.

Take `C=C1CC[C@H](O)C/C1=C/C=C1\CCC[C@]2(C)[C@@H]([C@H](C)CCCC(C)C)CC[C@@H]12` [Vitamin D3]: the increase in solubility in data set [3] (in the present compositions, D3 with ß-propoxy cyclodextrin) was 22,000%. Further, the appearance of composition entry in data set [1] (5 mg Vitamin D3, 15 mg βcyclodextrin, 15 mg cinnamic acid, 15 mg ethyl vanillin in 2.5 ml stock+1.0 ml water, heated at 175° C.) was “clear solution with flavor”.

`O=C(O)CCCC[C@@H]1SC[C@@H]2NC(=O)N[C@@H]21` [biotin]: the increase in solubility result in data set [3] is reported as “comparable increases”. Moreover, in data set [4], the solubility is about 3 mg/mL.

For the compound `CCNC(=O)CC[C@H](N)C(=O)O` [l-theanine], the appearance of composition entry in data set [1] (setting [5]) was “clear and flavored solution”.

For `CCOC(=O)CNC(=O)[C@@H]1CCCN1C(=O)Cc1ccccc1` [noopept] (PhAc-Pro-Gly-OEt), the appearance of composition entry in data set [1] (0.335 g noopept, 58 mg cinnamic acid in 2.0 ml stock, 2.0 ml ethanol, 0.1 ml flavored glycerin) was “clear and flavored solution”.

`Cc1cc2nc3c(=O)[nH]c(=O)nc-3n(C[C@H](O)[C@H](O)[C@H](O)CO)c2cc1C` [riboflavin]: the appearance of composition result in data set [1] (18 mg riboflavin, 9.26 mg l-arginine in 1.5 ml stock and 2.0 ml of 0.1 mol Na2CO3) is listed as “clear solution”.

In the case of cyanocobalamin [B12], the increase in solubility in data set [3] came out at 600%. Moreover, the “concentration of final translucent solution” value in data set [1] (water, 70% glycerin/30% 2,3 butane diol (v/v), 0.01M NaOH, 95% EtOH, room temperature) was about 0.21 M.
